Patent US20120004122A1, “Diagnostic Marker for Migraine and Use Thereof” (priority 2005, published 2012)

system: α-fodrin gene; assay: α-fodrin gene expression in lymphocyte-derived immortalized cells before and after drug administration (real-time PCR); assay type: cell-based, human; details: EB virus-immortalized cells derived from lymphocytes of the migraine group and the healthy group; before vs after administration of the drug to cells in culture; FIG. 2
Source text: Peripheral bloods were harvested from 5 patients having an aura of migraine, as diagnosed according to the International Classification of Headache Disorders 2nd Edition (ICHD-II) of the International Headache Society as well as from 5 healthy subjects constituting a control group who are matched with the 5 patients in terms of age and sex. From the migraine subjects, their bloods were drawn during an interval between migraine attacks. Their lymphocytes were isolated by centrifugation from the peripheral bloods collected from each group.
The lymphocytes of each group were infected by adding 1 mL of EB virus supernatant (the culture supernatant of B958 cells, EB virus-producing cells) to the lymphocytes at 2×10^6 cells and 2 μL of 100-fold diluted cyclosporin solution (original solution of cyclosporin (Sandimmun 1A (5 ml) 250 mg) to the lymphocytes at 2×10^6 cells, followed by incubation in RPMI(+) medium for about four days. Then, cell lines established by continuous passaging in the same medium were used as the lymphocyte-derived immortalized cells in the present invention. These immortalized cells were used for the following experiments under the same conditions of culture condition, number of passages, etc.
Thus, the gene expression levels of α-fodrin and HPCAL1 were examined by performing quantitative real-time PCR using immortalized lymphocytes obtained from the migraine and healthy subjects as samples. […] The expression level of each gene was relatively quantified by the comparative Ct (threshold cycle) method based on the amplification curve obtained from the PCR.
Immortalized cells derived from lymphocytes of the migraine group and the healthy group were subjected to mRNA expression analysis in the same manner as described above. […] By using part of the immortalized cells before and after the administration of each drug, the expression level of α-fodrin gene was analyzed.

Compound | expression level of α-fodrin gene
CNS(=O)(=O)Cc1ccc2[nH]cc(CCN(C)C)c2c1 [sumatriptan] | reduced the expression level of α-fodrin
NC(N)=Nc1nc(CSCCC(N)=NS(N)(=O)=O)cs1 [Gaster, famotidine] | increased the expression level of α-fodrin
CC(=O)Oc1ccccc1C(=O)O [aspirin] | reduced the expression level of α-fodrin
